# Reference: patent publication US4420481A, “Use of piperazine compounds as immunopotentiating agents” (Mitsuitoatsu Chemicals Inc., priority 1980, dated 1983)
# Key:
# [1] = test system: EL-4 leukemic cells; assay: Test 3: In-Vitro Test of Inhibition of Growth of Cancer Cell by Macrophage; format: cell-based; details: 8 mg/Kg intraperitoneal to mice, macrophages collected after 4 days, with EL-4 cells; control 80.2
# Description: The results of the test of the action of the effective ingredient of the present invention on the macrophage will now be described with reference to the following Test 3. More specifically, the separated macrophage and EL-4 leukemic cell were mixed and cultured, and ^3 H-thymidine was added to a culture medium and the quantity of ^3 H-thymidine incorporated into the EL-4 cell was determined to examine the activity of the macrophage. When the macrophage is activated by administration of the effective ingredient of the present invention, inhibition of the growth of EL-4 cell, that is, phagocytosis of the cancer cell by the macrophage, is observed. Accordingly, if the take-in amount of ^3 H-thymidine is measured and this amount is reduced, it is confirmed that the macrophage has been activated. […] The dose was 8 mg per Kg of the body weight. To the control group, a physiological saline solution was similarly administered. After passage of 4 days, exuded abdominal cells were collected and deposited on a plastic Petri dish to collect microphages. Then, 1×10^6 of so obtained macrophages and 1×10^5 of EL-4 leukemic cells of C57 BL/6J mouse were mixed with cultured in an RPM1 1640 culture medium to which 10% of bovine embryo serum was added (at 37° C. in the presence of 5% of CO2) for 24 hours. Then, 0.1μ Ci of ^3 H-thymidine was added and culturing was further conducted for 16 hours. Cells were collected on a filter paper from the culture medium and the amount of ^3 H-thymidine taken in was determined by a liquid scintillation counter. […] For comparison, the test was similarly carried out by using Levamisol hydrochloride. Results
# [2] = test system: Sarcoma 180; assay: Test 4: Test of Antitumor Effect to Sarcoma 180 by Oral Administration; format: in vivo, ICR female mice; details: for N: number of living mice: 100 mg/Kg oral; for D: average diameter of tumor: 100 mg/Kg oral once a day, 10 days
# Description: To the control group, a physiological saline solution was similarly administered. The dose of the compound was 100 mg per Kg of the body weight. The diameter D (mm) of the tumor was measured, and the average value and the number N of the living mice were determined to obtain results shown in Table 4.
# [3] = test system: Sarcoma 180; assay: Test 5: Test of Carcinostatic Effect to Sarcoma 180 by Subcutaneous Administration; format: in vivo, ICR female mice; details: 20 mg/Kg subcutaneous
# Description: To the control group, a physiological saline solution was similarly administered. […] The diameter D (mm) of the tumor was measured, and the average value and the number N of the living mice were determined to obtain results shown in Table 4.
SMILES,"N: number of living mice ([2]; 0 weeks, control 6)","D: average diameter of tumor ([2]; 2 weeks, control 10.6)","N: number of living mice ([2]; 2 weeks, control 6)","D: average diameter of tumor ([2]; 4 weeks, control 15.2)","N: number of living mice ([2]; 4 weeks, control 6)","D: average diameter of tumor ([2]; 6 weeks, control 22.4)","N: number of living mice ([2]; 6 weeks, control 6)","D: average diameter of tumor ([2]; 8 weeks, control 31.5)","N: number of living mice ([2]; 8 weeks, control 5)","D: average diameter of tumor ([2]; 10 weeks, control 37.6)","N: number of living mice ([2]; 10 weeks, control 1)","N: number of living mice ([3]; 0 weeks, control 6)","N: number of living mice ([3]; 2 weeks, control 6)","D: average diameter of tumor ([3]; 2 weeks, control 10.8)","N: number of living mice ([3]; 4 weeks, control 6)","D: average diameter of tumor ([3]; 4 weeks, control 16.6)","N: number of living mice ([3]; 6 weeks, control 6)","D: average diameter of tumor ([3]; 6 weeks, control 20.3)","N: number of living mice ([3]; 8 weeks, control 4)","D: average diameter of tumor ([3]; 8 weeks, control 31.2)",other results
CN1CCN(C(=O)N2CCCCC2)CC1 [drawing 14],,,,,,,,,,,,,,,,,,,,,Take-In Ratio of 3H-thymidine (average value) [1]: 22.6%
O=C(N1CCCCC1)N1CCN(c2ccccc2)CC1 [drawing 15],,,,,,,,,,,,,,,,,,,,,Take-In Ratio of 3H-thymidine (average value) [1]: 21.9%
CN1CCN(C(=O)N2CCCC2)CC1 [drawing 16],6,7.7 mm,6,6.3 mm,6,5.5 mm,6,4.7 mm,6,0 mm,6,,,,,,,,,,
CN1CCN(C(=O)N2CCCCC2)CC1 [drawing 17],6,6.0 mm,6,4.7 mm,6,4.8 mm,6,3.3 mm,6,0 mm,6,,,,,,,,,,
O=C(N1CCCCC1)N1CCN(c2ccccc2)CC1 [drawing 18],6,6.2 mm,6,3.8 mm,6,4.4 mm,6,5.3 mm,6,0 mm,6,,,,,,,,,,
CN1CCN(C(=O)N2CCCC2)CC1 [drawing 19],,,,,,,,,,,,6,6,2.2 mm,6,3.6 mm,6,6.1 mm,6,1.2 mm,"N: number of living mice ([3]; 10 weeks, control 1): 5; D: average diameter of tumor ([3]; 10 weeks, control 40.5): 0 mm"
CN1CCN(C(=O)N2CCCCC2)CC1 [drawing 20],,,,,,,,,,,,6,6,1.6 mm,6,3.7 mm,6,5.7 mm,6,0.8 mm,"N: number of living mice ([3]; 10 weeks, control 1): 6; D: average diameter of tumor ([3]; 10 weeks, control 40.5): 0 mm"
O=C(N1CCCCC1)N1CCN(c2ccccc2)CC1 [drawing 21],,,,,,,,,,,,6,6,2.4 mm,6,3.9 mm,6,5.2 mm,6,0.2 mm,"N: number of living mice ([3]; 10 weeks, control 1): 6; D: average diameter of tumor ([3]; 10 weeks, control 40.5): 0 mm"
